Legend:
[1] = target: T1, Muscarinic acetylcholine receptor M1 (Homo sapiens) (UniProt P11229); assay: Allosteric modulation of human muscarinic M1 receptor expressed in CHO cells assessed as effect on acetylcholine-induced calcium mobilization by FLIPR assay; type: functional, cell-based
T1 sequence (whole entry): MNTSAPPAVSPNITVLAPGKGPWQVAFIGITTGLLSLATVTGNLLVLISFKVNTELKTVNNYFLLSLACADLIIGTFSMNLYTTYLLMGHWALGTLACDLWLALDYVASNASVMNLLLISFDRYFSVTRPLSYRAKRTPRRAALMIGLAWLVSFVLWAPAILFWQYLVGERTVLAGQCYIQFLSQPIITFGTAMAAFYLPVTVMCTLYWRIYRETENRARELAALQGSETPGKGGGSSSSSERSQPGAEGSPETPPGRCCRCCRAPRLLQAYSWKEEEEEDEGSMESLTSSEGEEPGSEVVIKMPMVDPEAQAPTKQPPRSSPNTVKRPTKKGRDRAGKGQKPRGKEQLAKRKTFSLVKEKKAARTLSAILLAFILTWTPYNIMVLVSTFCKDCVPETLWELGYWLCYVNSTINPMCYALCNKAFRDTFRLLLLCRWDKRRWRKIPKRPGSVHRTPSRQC

[2] = Plasma protein binding in rat serum by equilibrium dialysis method
[3] = Plasma protein binding in human serum by equilibrium dialysis method
[4] = Drug level in rat cerebrospinal fluid at 10 mg/kg, po after 1 hr

**Q.** Which IP [1] does the source give for `O=C(O)c1cn(Cc2ccccc2C(F)(F)F)c2c(F)cccc2c1=O` here?
**A.** 6900 nM

**Q.** Which IP [1] does the source give for `O=C(O)c1cn(Cc2cccc(C(F)(F)F)c2)c2ccccc2c1=O` here?
**A.** 7200 nM

**Q.** With `CN(C)c1cccc(-c2ccc(Cn3cc(C(=O)O)c(=O)c4cccc(F)c43)cc2)c1` as the molecule, how does the IP [1] read?
**A.** 94 nM

**Q.** Which IP [1] does the source give for `O=C(O)c1cn(Cc2ccc(Br)cc2F)c2cccc(F)c2c1=O` here?
**A.** 1100 nM

**Q.** With `COc1ccc(Cn2cc(C(=O)O)c(=O)c3cccc(F)c32)cc1` as the molecule, how does the IP [1] read?
**A.** 1100 nM

**Q.** With `COc1cccc(Cn2cc(C(=O)O)c(=O)c3ccccc32)c1` as the molecule, how does the IP [1] read?
**A.** 2800 nM

**Q.** With `O=C(O)c1cn(Cc2ccc(C(F)(F)F)cc2)c2c(F)cccc2c1=O` as the molecule, how does the IP [1] read?
**A.** 980 nM

**Q.** Which IP [1] does the source give for `N#Cc1ccccc1-c1ccc(Cn2cc(C(=O)O)c(=O)c3cccc(F)c32)cc1` here?
**A.** 540 nM

**Q.** With `O=C(O)c1cn(Cc2ccccc2C(F)(F)F)c2ccccc2c1=O` as the molecule, how does the IP [1] read?
**A.** 4300 nM

**Q.** Which results are given for `O=C(O)c1cn(Cc2ccc(-c3cn[nH]c3)cc2F)c2cccc(F)c2c1=O`?
**A.** fraction unbound [2]: 0.02; fraction unbound [3]: 0.044; IP [1]: 41 nM

**Q.** Which IP [1] does the source give for `N#Cc1ccccc1-c1ccc(Cn2cc(C(=O)O)c(=O)c3c(F)cccc32)cc1` here?
**A.** 400 nM

**Q.** For `O=C(O)c1cn(Cc2ccccc2)c2c(F)cccc2c1=O`, which IP [1] is on record?
**A.** 4000 nM

**Q.** Which IP [1] does the source give for `COc1ncc(-c2ccc(Cn3cc(C(=O)O)c(=O)c4ccccc43)c(F)c2)cn1` here?
**A.** 510 nM

**Q.** For `O=C(O)c1cn(Cc2ccc(-c3ccccc3)cc2)c2ccccc2c1=O`, which IP [1] is on record?
**A.** 210 nM

**Q.** With `O=C(O)c1cn(Cc2ccccc2)c2ccccc2c1=O` as the molecule, how does the IP [1] read?
**A.** 1700 nM

**Q.** For `COc1cccc(Cn2cc(C(=O)O)c(=O)c3cccc(F)c32)c1`, which IP [1] is on record?
**A.** 2700 nM

**Q.** With `NC(=O)c1cccc(Cn2cc(C(=O)O)c(=O)c3cccc(F)c32)c1` as the molecule, how does the IP [1] read?
**A.** 3400 nM

**Q.** For `O=C(O)c1cn(Cc2ccc(C3CC3)cc2)c2c(F)cccc2c1=O`, which IP [1] is on record?
**A.** 1200 nM

**Q.** With `CNc1ccc(-c2ccc(Cn3cc(C(=O)O)c(=O)c4cccc(F)c43)cc2)cn1` as the molecule, how does the IP [1] read?
**A.** 48 nM

**Q.** For `O=C(O)c1cn(Cc2ccc(-c3ccccc3)cc2)c2c(F)ccc(F)c2c1=O`, which IP [1] is on record?
**A.** 270 nM

**Q.** Which results are given for `O=C(O)c1cn(Cc2ccc(-c3cccnc3)cc2)c2cccc(F)c2c1=O`?
**A.** fraction unbound [2]: 0.051; fraction unbound [3]: 0.055; concentration at 1 h [4]: 24 nM; IP [1]: 61 nM

**Q.** For `CN1CCN(c2ccc(-c3ccc(Cn4cc(C(=O)O)c(=O)c5cccc(F)c54)cc3)cn2)CC1`, which IP [1] is on record?
**A.** 51 nM

**Q.** For `O=C(O)c1cn(Cc2ccc(-c3cccc4[nH]ccc34)cc2)c2c(F)cccc2c1=O`, which IP [1] is on record?
**A.** 76 nM

**Q.** With `O=C(O)c1cn(Cc2ccc(C(F)(F)F)cc2)c2c(F)ccc(F)c2c1=O` as the molecule, how does the IP [1] read?
**A.** 760 nM

**Q.** For `O=C(O)c1cn(Cc2ccc(Br)cc2F)c2c(F)ccc(F)c2c1=O`, which IP [1] is on record?
**A.** 860 nM

**Q.** Which IP [1] does the source give for `O=C(O)c1cn(Cc2cccc(C(F)(F)F)c2)c2c(F)cccc2c1=O` here?
**A.** 2700 nM

**Q.** For `O=C(O)c1cn(Cc2c(F)cccc2F)c2c(F)cccc2c1=O`, which IP [1] is on record?
**A.** 1000 nM

**Q.** For `COc1cccc(Cn2cc(C(=O)O)c(=O)c3c(F)cccc32)c1`, which IP [1] is on record?
**A.** 2100 nM

**Q.** Which IP [1] does the source give for `O=C(O)c1cn(Cc2ccccc2C(F)(F)F)c2c(F)ccc(F)c2c1=O` here?
**A.** 2300 nM

**Q.** Which IP [1] does the source give for `NC(=O)c1cccc(Cn2cc(C(=O)O)c(=O)c3ccccc32)c1` here?
**A.** 4300 nM

**Q.** Which IP [1] does the source give for `O=C(O)c1cn(Cc2ccc(Br)cc2F)c2c(F)cccc2c1=O` here?
**A.** 1200 nM

**Q.** With `O=C(O)c1cn(C2(c3ccccc3)CC2)c2ccccc2c1=O` as the molecule, how does the IP [1] read?
**A.** 13000 nM

**Q.** For `Nc1ccc(-c2ccc(Cn3cc(C(=O)O)c(=O)c4cccc(F)c43)cc2)cn1`, which IP [1] is on record?
**A.** 130 nM

**Q.** For `O=C(O)c1cn(Cc2ccc(-c3ccccc3)cc2F)c2ccccc2c1=O`, which IP [1] is on record?
**A.** 50 nM

**Q.** With `O=C(O)c1cn(Cc2c(F)cccc2F)c2c(F)ccc(F)c2c1=O` as the molecule, how does the IP [1] read?
**A.** 610 nM

**Q.** For `COc1cccc(Cn2cc(C(=O)O)c(=O)c3c(F)ccc(F)c32)c1`, which IP [1] is on record?
**A.** 4200 nM

**Q.** For `O=C(O)c1cn(Cc2ccccc2)c2c(F)ccc(F)c2c1=O`, which IP [1] is on record?
**A.** 3000 nM

**Q.** With `O=C(O)c1cn(Cc2ccc(-c3ccccc3)cc2)c2cccc(F)c2c1=O` as the molecule, how does the IP [1] read?
**A.** 84 nM

**Q.** For `O=C(O)c1cn(Cc2c(F)cccc2F)c2cccc(F)c2c1=O`, which IP [1] is on record?
**A.** 1300 nM

**Q.** With `O=C(O)c1cn(Cc2ccc(-c3ccccc3)cc2)c2c(F)cccc2c1=O` as the molecule, how does the IP [1] read?
**A.** 380 nM

**Q.** For `O=C(NC1CC1)c1ccc(-c2ccc(Cn3cc(C(=O)O)c(=O)c4cccc(F)c43)cc2)cc1`, which IP [1] is on record?
**A.** 110 nM

**Q.** With `O=C(O)c1cn(Cc2ccc(OC(F)(F)F)cc2)c2c(F)cccc2c1=O` as the molecule, how does the IP [1] read?
**A.** 2100 nM

**Q.** Which IP [1] does the source give for `O=C(O)c1cn(Cc2ccc(OC(F)(F)F)cc2)c2cccc(F)c2c1=O` here?
**A.** 2800 nM

**Q.** Which IP [1] does the source give for `O=C(O)c1cn(CCc2ccccc2)c2c(F)cccc2c1=O` here?
**A.** 24000 nM

**Q.** Which IP [1] does the source give for `O=C(NCCO)c1cccc(-c2ccc(Cn3cc(C(=O)O)c(=O)c4cccc(F)c43)cc2)c1` here?
**A.** 99 nM

**Q.** For `COc1ccc(Cn2cc(C(=O)O)c(=O)c3c(F)cccc32)cc1`, which IP [1] is on record?
**A.** 2000 nM

**Q.** With `CN(C)Cc1cccc(-c2ccc(Cn3cc(C(=O)O)c(=O)c4cccc(F)c43)cc2)c1` as the molecule, how does the IP [1] read?
**A.** 220 nM

**Q.** For `O=C(O)c1cn(Cc2ccc(C(F)(F)F)cc2)c2cccc(F)c2c1=O`, which IP [1] is on record?
**A.** 1500 nM

**Q.** Which IP [1] does the source give for `O=C(O)c1cn(Cc2cccc(OC(F)(F)F)c2)c2ccccc2c1=O` here?
**A.** 4100 nM

**Q.** With `Nc1cccc(-c2ccc(Cn3cc(C(=O)O)c(=O)c4cccc(F)c43)cc2)c1` as the molecule, how does the IP [1] read?
**A.** 210 nM

**Q.** With `CS(=O)(=O)c1ccc(Cn2cc(C(=O)O)c(=O)c3c(F)ccc(F)c32)cc1` as the molecule, how does the IP [1] read?
**A.** 16000 nM

**Q.** For `O=C(O)c1cn(Cc2cccc(OC(F)(F)F)c2)c2c(F)ccc(F)c2c1=O`, which IP [1] is on record?
**A.** 3200 nM

**Q.** With `COc1ccc(-c2ccc(Cn3cc(C(=O)O)c(=O)c4cccc(F)c43)cc2)cn1` as the molecule, how does the IP [1] read?
**A.** 63 nM

**Q.** With `O=C(O)c1cn(Cc2cccc(OC(F)(F)F)c2)c2c(F)cccc2c1=O` as the molecule, how does the IP [1] read?
**A.** 3600 nM

**Q.** Which IP [1] does the source give for `O=C(O)c1cn(Cc2ccc(-c3cn[nH]c3)cc2F)c2ccccc2c1=O` here?
**A.** 56 nM

**Q.** Which IP [1] does the source give for `O=C(O)c1cn(Cc2ccc(OC(F)(F)F)cc2)c2ccccc2c1=O` here?
**A.** 1800 nM

**Q.** With `CS(=O)(=O)c1ccc(Cn2cc(C(=O)O)c(=O)c3ccccc32)cc1` as the molecule, how does the IP [1] read?
**A.** 18000 nM

**Q.** For `O=C(O)c1cn(Cc2ccc(-c3cncnc3)cc2)c2c(F)cccc2c1=O`, which IP [1] is on record?
**A.** 830 nM

**Q.** With `O=C(O)c1cn(Cc2ccc(C3CC3)cc2)c2cccc(F)c2c1=O` as the molecule, how does the IP [1] read?
**A.** 830 nM

**Q.** For `O=C(O)c1cn(Cc2ccc(OC(F)(F)F)cc2)c2c(F)ccc(F)c2c1=O`, which IP [1] is on record?
**A.** 1300 nM

**Q.** With `O=C(O)c1cn(Cc2ccc(-c3ccncc3)cc2)c2c(F)cccc2c1=O` as the molecule, how does the IP [1] read?
**A.** 100 nM

**Q.** With `O=C(O)c1cn(CCc2ccccc2)c2ccccc2c1=O` as the molecule, how does the IP [1] read?
**A.** > 100000 nM

**Q.** Which IP [1] does the source give for `Cn1cc(-c2ccc(Cn3cc(C(=O)O)c(=O)c4ccccc43)c(F)c2)cn1` here?
**A.** 37 nM

**Q.** Which fraction unbound [2] does the source give for `O=C(O)c1cn(Cc2ccc(-c3cccc4cccnc34)cc2)c2cccc(F)c2c1=O` here?
**A.** 0.015

**Q.** And the IP [1]?
**A.** 190 nM

**Q.** For `O=C(O)c1cn(Cc2ccc(-c3ccccc3)cc2Cl)c2ccccc2c1=O`, which IP [1] is on record?
**A.** 120 nM

**Q.** With `CS(=O)(=O)c1ccc(Cn2cc(C(=O)O)c(=O)c3cccc(F)c32)cc1` as the molecule, how does the IP [1] read?
**A.** 13000 nM

**Q.** With `O=C(O)c1cn(Cc2ccc(-c3cccc(CO)n3)cc2)c2c(F)cccc2c1=O` as the molecule, how does the fraction unbound [2] read?
**A.** 0.022

**Q.** And the fraction unbound [3]?
**A.** 0.058

**Q.** And the IP [1]?
**A.** 250 nM

**Q.** For `O=C(O)c1cn(Cc2cccc(OC(F)(F)F)c2)c2cccc(F)c2c1=O`, which IP [1] is on record?
**A.** 5900 nM

**Q.** With `O=C(O)c1cn(C2(c3ccccc3)CC2)c2c(F)cccc2c1=O` as the molecule, how does the IP [1] read?
**A.** 22000 nM

**Q.** Which IP [1] does the source give for `O=C(O)c1cn(Cc2cccc(C(F)(F)F)c2)c2c(F)ccc(F)c2c1=O` here?
**A.** 1600 nM

**Q.** For `CN(C)c1cc(-c2ccc(Cn3cc(C(=O)O)c(=O)c4cccc(F)c43)cc2)ccn1`, which IP [1] is on record?
**A.** 45 nM

Source: ChEMBL document CHEMBL1153216, “Parallel synthesis of N-biaryl quinolone carboxylic acids as selective M(1) positive allosteric modulators” (Bioorg Med Chem Lett, 2010)
